According to patent publication US20110142842A1, “POLYPEPTIDES” (Medinnova AS, priority 2007, published 2011):

Key:
[1] = biological target: HLA-A*0201 (Homo sapiens, UniProt P04439, /I218V/L300P/L318F/N151K/N90K/P208A/P217A/Q86G/Q94H/R138H/R169H/T345S); experiment: REVEAL MHC molecule binding assay (ProImmune); conditions: value of the unmodified old peptide listed beside the modified peptide ID
[2] = biological target: HLA-A*0201 (Homo sapiens, UniProt P04439, D140Y/D185E/D98H/E176V/E277Q/G131W/G231S/I119V/I121R/I166T/I218V/L300P/L318F/N151K/N90K/P208A/P217A/Q86G/Q94H/R138H/R169H/T345S); experiment: REVEAL MHC molecule binding assay (ProImmune); conditions: level of binding relative to pass/fail control binder designated 100%
[3] = system: autologous responder cells (monocyte-depleted PBMC) from HLA-A*0201-negative donors; experiment: Induction of pentamer positive CD8+ T cells by peptide-pulsed HLA-A*0201-transfected moDC (Example 8); type: cell-based, human
Procedure: MoDC transfected with HLA-A*0201 mRNA were harvested 18 hours after transfection and resuspended in 1-2 ml of serum-free DC-medium containing 50 μg/ml peptide, such as MART-1 or peptide #19. The cells were incubated at 37° C., 5% CO2 for 4 hours, then washed once in serum-free RPMI.
Stimulator and responder cells were seeded at a stimulator to responder (S:R) ratio of 1:10, with 3.0×10^6 responders per well in serum-free DC medium containing 10 ng/ml IL-7 (PeproTech EC Ltd.), 50 pg/ml IL-12 (PeproTech EC Ltd.), and PPD at 1 μg/ml.
On day 12 the responder cells were harvested and analyzed for the presence of pentamer positive cells. The cells were either sorted or restimulated.
Restimulation was done with autologous EBV-LCL transfected with HLA-A*0201 mRNA 12-24 hours prior to stimulation, harvested and resuspended in 1-2 ml of serum-free X-Vivo 20 (Cambrex) containing the same peptide as added on day 0 at 20 μg/ml, and incubated for 4 hours at 37° C., 5% CO2. Following incubation, the EBV-LCL were washed once in serum-free RPMI.
From day 12 of co-culture with stimulator cells, the responders were harvested, counted and analyzed for the presence of pentamer positive cells weekly. The responder cells were either restimulated, as described above, or the pentamer positive cells were sorted and expanded as described below.
Monocyte-derived dendritic cells (moDC) from HLA-A*0201-negative donors were transfected with HLA-A*0201 mRNA after maturation. 18-24 hours post-transfection the cells were pulsed with the peptides indicated in Table 2 for four hours, before co-culturing them with autologous responder cells (monocyte-depleted PBMC). On day 12 and day 19 and in some cases at day 26 of co-culture, the cells were harvested, stained with relevant peptide-MHC-pentamer and analyzed by flow cytometry. The percentage of pentamer positive cells was calculated by dividing the number of pentamer positive cells by the number of CD8+ cells. On day 12 and day 19, the cells were restimulated with autologous EBV-cells that were transfected with HLA-A*0201 mRNA and loaded for four hours with the relevant peptides indicated in Table 2.

- % Pass/fail (Old Peptide) [1]: 295.4%
- % Pass/fail control [2]: 295.4%
Sequence: SVDPRIANV [82] (homo sapiens) [Peptide 82, from MPO]
- Day 12 % pent+/CD8+ ([3]; day 12 of co-culture): 0.04%
- Day 19 % pent+/CD8+ ([3]; day 19 of co-culture, after restimulation): 0.19%
- Day 12 Donors ([3]; donors with positive response / donors tested, day 12): 1/2
- Day 19 Donors ([3]; donors with positive response / donors tested, day 19): 1/2
